The numbers were not newly measured in patent US6187938A, “ω-amino acid derivatives, processes of their preparation and their use” (Bochemie, s.r.o., priority 1997, dated 2001), which cites them from elsewhere.

The data set concerns skin. The settings on record: in presence of petrolatum; Stoughton, McClure 1983.

Regarding `CCCCCCCCCCCCN1CCCCCC1=O` [laurocapram, 1-dodecylazacycloheptan-2-one], the “inhibition of permeation enhancing effect by paraffinic auxiliary substances (e.g., petrolatum)” value is listed as “completely inhibit”.
